Experimental data published in patent publication US20170334899A1, “AMINO-SUBSTITUTED ISOTHIAZOLES” (Bayer Pharma Aktiengesellschaft, priority 2014, published 2017).

Key:
[1] = tested on: human cervical tumor cell line HeLa (ATCC CCL-2); assay: SAC-Formation - Paclitaxel-Induced Assay; type: cell-based; conditions: Homo sapiens, HeLa, 24 h, HeLa cells, paclitaxel 0.05 μM, test range 0.005 μM-20 μM, read-out: IC50 [mol/l] SAC-Formation - Paclitaxel-Induced Assay
Method in brief: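 Read-out is high-content imaging of anti-phospho-H3 Ser10 (mitosis) and Hoechst 33342 (DNA, cell number), with decreased mitotic fraction marking checkpoint breakthrough. Compounds (0.005–20 μM) and 0.05 μM paclitaxel co-added to overnight-plated HeLa for 24 h at 37° C; four-parameter Hill fit.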

[2] = tested on: human cervical tumor cell line HeLa (ATCC CCL-2); assay: SAC-Formation - Nocodazole-Induced Assay; type: cell-based; conditions: Homo sapiens, HeLa, 24 h, HeLa cells, nocodazole 0.1 μg/ml together with test compound, decrease of mitotic cells (phospho-histone H3 Ser10)
Method in brief: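 Loss of phospho-histone H3 Ser10-positive cells, counted against Hoechst-stained nuclei by high-content imaging, marked mitotic breakthrough. Compounds (0.005–20 μM, 0.5% DMSO) were co-dosed with 0.1 μg/ml nocodazole onto HeLa cells for 24 h at 37 °C. Curves were fitted with a four-parameter Hill equation.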

Compound	IC50 [1] [nM]	IC50 [2] [nM]
Cc1nsc(Nc2cnc(C(F)(F)F)cn2)c1C(=O)Nc1ccc(OC[C@@H]2CCN(CC(F)(F)F)C2)nc1 [Example 128, 3-Methyl-N-(6-{[(3R)-1-(2,2,2-trifluoroethyl)pyrrolidin-3-yl]methoxy}pyridin-3-yl)-5-{[5-(trifluoromethyl)pyrazin-2-yl]amino}-1,2-thiazole-4-carboxamide]	70	15
Cc1nsc(Nc2cnc(C(F)(F)F)cn2)c1C(=O)Nc1ccc(OC[C@@H]2CCN(CCC(F)(F)F)C2)nc1 [Example 129, 3-Methyl-5-{[5-(trifluoromethyl)pyrazin-2-yl]amino}-N-(6-{[(3R)-1-(3,3,3-trifluoropropyl)pyrrolidin-3-yl]methoxy}pyridin-3-yl)-1,2-thiazole-4-carboxamide]	84	32
Cc1nsc(Nc2cnc(C(F)(F)F)cn2)c1C(=O)Nc1ccc(O[C@@H]2CCN(CC(F)F)C[C@@H]2F)nc1 [Example 137, N-(6-{[(3S,4R)-1-(2,2-difluoroethyl)-3-fluoropiperidin-4-yl]oxy}pyridin-3-yl)-3-methyl-5-{[5-(trifluoromethyl)pyrazin-2-yl]amino}-1,2-thiazole-4-carboxamide]	32	34
Cc1nsc(Nc2cnc(C(F)(F)F)cn2)c1C(=O)Nc1ccc(O[C@@H]2CCN(CC(F)(F)F)C[C@@H]2F)nc1 [Example 138, N-(6-{[(3S,4R)-3-fluoro-1-(2,2,2-trifluoroethyl)piperidin-4-yl]oxy}pyridin-3-yl)-3-methyl-5-{[5-(trifluoromethyl)pyrazin-2-yl]amino}-1,2-thiazole-4-carboxamide]	170	110
Cc1nsc(Nc2cnc(C(F)(F)F)cn2)c1C(=O)Nc1ccc(O[C@@H]2CCN(CCC(F)(F)F)C[C@@H]2F)nc1 [Example 139, N-(6-{[(3S,4R)-3-fluoro-1-(3,3,3-trifluoropropyl)piperidin-4-yl]oxy}pyridin-3-yl)-3-methyl-5-{[5-(trifluoromethyl)pyrazin-2-yl]amino}-1,2-thiazole-4-carboxamide]	89	16
CCCN1CC[C@@H](Oc2ccc(NC(=O)c3c(C)nsc3Nc3cnc(C(F)(F)F)cn3)cn2)[C@@H](F)C1 [Example 140, N-(6-{[(3S,4R)-3-fluoro-1-propylpiperidin-4-yl]oxy}pyridin-3-yl)-3-methyl-5-{[5-(trifluoromethyl)pyrazin-2-yl]amino}-1,2-thiazole-4-carboxamide]	110	60
CCCCN1CC[C@@H](Oc2ccc(NC(=O)c3c(C)nsc3Nc3cnc(C(F)(F)F)cn3)cn2)[C@@H](F)C1 [Example 141, N-(6-{[(3S,4R)-1-butyl-3-fluoropiperidin-4-yl]oxy}pyridin-3-yl)-3-methyl-5-{[5-(trifluoromethyl)pyrazin-2-yl]amino}-1,2-thiazole-4-carboxamide]	120	36
Cc1nsc(Nc2cnc(C(F)(F)F)cn2)c1C(=O)Nc1ccc(O[C@H]2CCN(CC(F)F)C[C@H]2F)nc1 [Example 144, N-(6-{[(3R,4S)-1-(2,2-difluoroethyl)-3-fluoropiperidin-4-yl]oxy}pyridin-3-yl)-3-methyl-5-{[5-(trifluoromethyl)pyrazin-2-yl]amino}-1,2-thiazole-4-carboxamide]	94	36
Cc1nsc(Nc2cnc(C(F)(F)F)cn2)c1C(=O)Nc1ccc(O[C@H]2CCN(CC(F)(F)F)C[C@H]2F)nc1 [Example 145, N-(6-{[(3R,4S)-3-fluoro-1-(2,2,2-trifluoroethyl)piperidin-4-yl]oxy}pyridin-3-yl)-3-methyl-5-{[5-(trifluoromethyl)pyrazin-2-yl]amino}-1,2-thiazole-4-carboxamide]	37	13
Cc1nsc(Nc2cnc(C(F)(F)F)cn2)c1C(=O)Nc1ccc(O[C@H]2CCN(CCC(F)(F)F)C[C@H]2F)nc1 [Example 146, N-(6-{[(3R,4S)-3-fluoro-1-(3,3,3-trifluoropropyl)piperidin-4-yl]oxy}pyridin-3-yl)-3-methyl-5-{[5-(trifluoromethyl)pyrazin-2-yl]amino}-1,2-thiazole-4-carboxamide]	110	63
CCCN1CC[C@H](Oc2ccc(NC(=O)c3c(C)nsc3Nc3cnc(C(F)(F)F)cn3)cn2)[C@H](F)C1 [Example 147, N-(6-{[(3R,4S)-3-fluoro-1-propylpiperidin-4-yl]oxy}pyridin-3-yl)-3-methyl-5-{[5-(trifluoromethyl)pyrazin-2-yl]amino}-1,2-thiazole-4-carboxamide]	30	5.9
CCCCN1CC[C@H](Oc2ccc(NC(=O)c3c(C)nsc3Nc3cnc(C(F)(F)F)cn3)cn2)[C@H](F)C1 [Example 148, N-(6-{[(3R,4S)-1-butyl-3-fluoropiperidin-4-yl]oxy}pyridin-3-yl)-3-methyl-5-{[5-(trifluoromethyl)pyrazin-2-yl]amino}-1,2-thiazole-4-carboxamide]	310	210
Cc1nsc(Nc2cnc3cc(F)ccc3n2)c1C(=O)Nc1ccc(S(N)(=O)=O)cc1 [Example 149, 5-[(6-fluoroquinoxalin-2-yl)amino]-3-methyl-N-(4-sulfamoylphenyl)-1,2-thiazole-4-carboxamide]	1600	470
Cc1nsc(Nc2ccc(C#N)cn2)c1C(=O)Nc1cccc(S(C)(=O)=O)c1 [Example 150, 5-[(5-cyanopyridin-2-yl)amino]-3-methyl-N-[3-(methylsulfonyl)phenyl]-1,2-thiazole-4-carboxamide]	250	160
Cc1nsc(Nc2cnc(C(F)(F)F)cn2)c1C(=O)Nc1ccc(F)c(C(N)=O)c1 [Example 151, N-(3-carbamoyl-4-fluorophenyl)-3-methyl-5-{[5-(trifluoromethyl)pyrazin-2-yl]amino}-1,2-thiazole-4-carboxamide]	1300	290
CC(=O)Nc1cc(NC(=O)c2c(C)nsc2Nc2ccc(C#N)cn2)ccc1F [Example 152, N-(3-acetamido-4-fluorophenyl)-5-[(5-cyanopyridin-2-yl)amino]-3-methyl-1,2-thiazole-4-carboxamide]	8800	8400
Cc1nsc(Nc2cnc(C(F)(F)F)cn2)c1C(=O)Nc1ccc(C(=O)NCCN2CCCC(F)(F)C2)cc1 [Example 153, N-(4-{[2-(3,3-difluoropiperidin-1-yl)ethyl]carbamoyl}phenyl)-3-methyl-5-{[5-(trifluoromethyl)pyrazin-2-yl]amino}-1,2-thiazole-4-carboxamide]	370	65
Cc1nsc(Nc2cnc(C(F)(F)F)cn2)c1C(=O)Nc1ccc(C(=O)N2CCN(CC(F)F)CC2)cc1 [Example 154, N-(4-{[4-(2,2-difluoroethyl)piperazin-1-yl]carbonyl}phenyl)-3-methyl-5-{[5-(trifluoromethyl)pyrazin-2-yl]amino}-1,2-thiazole-4-carboxamide]	1200	710
Cc1nsc(Nc2cncc(C(F)(F)F)n2)c1C(=O)Nc1ccc(C(=O)NCCN2CCCC(F)C2)cc1 (centres unmarked) [Example 155, N-(4-{[2-(3-fluoropiperidin-1-yl)ethyl]carbamoyl}phenyl)-3-methyl-5-{[6-(trifluoromethyl)pyrazin-2-yl]amino}-1,2-thiazole-4-carboxamide]	20000	1700
Cc1nsc(Nc2cnc3ccccc3n2)c1C(=O)Nc1ccc(C(=O)NCCN2CCCC(F)(F)C2)cc1 [Example 156, N-(4-{[2-(3,3-difluoropiperidin-1-yl)ethyl]carbamoyl}phenyl)-3-methyl-5-(quinoxalin-2-ylamino)-1,2-thiazole-4-carboxamide]	4000	2100
Cc1nsc(Nc2cnc3ccccc3n2)c1C(=O)Nc1ccc(C(=O)N2CCN(CC(F)F)CC2)cc1 [Example 157, N-(4-{[4-(2,2-difluoroethyl)piperazin-1-yl]carbonyl}phenyl)-3-methyl-5-(quinoxalin-2-ylamino)-1,2-thiazole-4-carboxamide]	900	1700
Cc1nsc(Nc2cnc3ccccc3n2)c1C(=O)Nc1ccc(C(=O)NC2CN(C(=O)OC(C)(C)C)CC(F)(F)C2)cc1 (centres unmarked) [Example 158, tert-butyl 3,3-difluoro-5-{[4-({[3-methyl-5-(quinoxalin-2-ylamino)-1,2-thiazol-4-yl]carbonyl}amino)benzoyl]amino} piperidine-1-carboxylate]	2800	240
Cc1nsc(Nc2cnc3ccccc3n2)c1C(=O)Nc1ccc(C(=O)N2CCCN(CC(F)(F)F)CC2)cc1 [Example 159]	10000	1500
Cc1nsc(Nc2cnc(C(F)(F)F)cn2)c1C(=O)Nc1ccc(OC2CCN(C(C)C)CC2)nc1 [Example 160, N-{6-[(1-isopropylpiperidin-4-yl)oxy]pyridin-3-yl}-3-methyl-5-{[5-(trifluoromethyl)pyrazin-2-yl]amino}-1,2-thiazole-4-carboxamide]	3600	2000
Cc1nsc(Nc2cnc(C(F)(F)F)cn2)c1C(=O)Nc1ccc(OC2CCN(CCF)CC2)c(F)c1 [Example 162, N-(3-fluoro-4-{[1-(2-fluoroethyl)piperidin-4-yl]oxy}phenyl)-3-methyl-5-{[5-(trifluoromethyl)pyrazin-2-yl]amino}-1,2-thiazole-4-carboxamide]	120	160
